Results reported in patent US8338475B2, “Anti-proliferative pharmaceutical composition” (BioCis Pharma Oy, priority 2003, dated 2012).
Where “and” joins values, the source holds several entries; their conditions need not be identical. Equal entries are not always repeated.

Columns and labels:
[1] = test system: human polymorphonuclear neutrophils; conditions: extracellular pH range 6.1 to 7.0; patent application US2006035973; cited from earlier work
[2] = test system: K562 (chronic myelogenous leukemia); experiment: Proliferation assay (CellTiter 96), K562 cells; type: cell-based, human; conditions: pH 6.5, 44 h, cis-UCA 10 mM, CPT 2 μM, 15,000 cells per 100 μl
Excerpt: (§1) Transformed tumour cell lines WM 266-4 and A2058 (cutaneous melanoma), HT-1080 (epithelial fibrosarcoma), HeLa (epithelial adenocarcinoma of cervix), HK293 (kidney epithelial cells) and non-transformed cell line HSF (skin fibroblast from a healthy volunteer donor) of human origin have been described earlier (Li et al. 2003). The K562 (chronic myelogenous leukemia) cells were purchased from American Type Culture Collection.
(§2) The cells were maintained in logarithmic growth phase in IMDM medium (Invitrogen, Paisley, UK) supplemented with 10% fetal calf serum and antibiotics in a humidified incubator at +37° C., 5% CO2. The adherent cells lines were harvested for experiments with 0.25% trypsin-EDTA in PBS for 5 min and then resuspended and washed in medium. After counting of viable cells, 15,000 to 75,000 cells were transferred into flat-bottom 96-well cell culture plates in a volume of 100 or 150 μl.
(§3) The proliferation activity of cultured cell lines was quantified in flat-bottom 96-well plates with a modified colorimetric assay based on a tetrazolium derivative (CellTiter 96 Aqueous One Solution Cell Proliferation Assay, Promega). The cells were cultured in the presence of camptothecin and/or cis-UCA for 20 to 92 h, then the proliferation reagent was added for 2 h, and the absorbance at 490 nm was measured in a plate reader. […]

HSF (skin fibroblast) = experiment: Proliferation assay (CellTiter 96), HSF cells; type: cell-based, human; conditions: pH 6.5, 44 h, cis-UCA 10 mM, CPT 2 μM, 15,000 cells per 100 μl
Excerpt: as §1, §2, §3

[3] = cited from earlier work
[4] = test system: Ki67 (proliferating cells) in A2058 tumours; experiment: Immunohistochemistry of tumours, Ki67 staining; type: in vivo, SCID/SCID mice; conditions: tumours collected after 16 days; 30 mM cis-UCA, 1 μM CPT intratumoural
Excerpt: After 16 days from the first injection, all the animals were sacrificed with CO2, and the tumours were collected and fixed in formalin for further studies. In groups A, C, and D, one mouse was sacrificed before the end of the experiment because of poor development of the tumour (no measurable tumour at day 0). One animal in group B was sacrificed prematurely after it had severly scratched the tumour. Data from these animals were not included in the calculation of the tumour size results. All the removed animals were female mice. Immunohistochemical data was obtained also from the removed mice except from group B. The experiments were conducted under a protocol approved by the local ethics committee.
Paraffin sections of the tumours were stained with haematoxylin/eosin following standard procedures for an overall picture. Ki67 was stained to detect the amount of proliferating cells. The staining procedure for the Ki67 primary antibody (Dako, Klostrup, Denmark) at 1:50 dilution and secondary antibody (StreptABComplex/HRP Duet Mouse/Rabbit, Dako) at 1:100 dilution followed the instructions provided by the manufacturer. Two sections from each tumour was examined.

[5] = test system: HT-1080 (epithelial fibrosarcoma); experiment: Proliferation assay (CellTiter 96), HT-1080 cells; type: cell-based, human; conditions: pH 6.5, 44 h, cis-UCA 10 mM, CPT 2 μM, 15,000 cells per 100 μl
Excerpt: as §1, §2, §3

caspase-3 = experiment: Determination of caspase-3 activity in A2058 melanoma cells; type: cell-based, human; conditions: 30 mM cis-UCA in pH 6.5 medium, at 2 h
Procedure: The cells were allowed to attach to culture flasks at 5×10^6 cells per 7 ml of medium overnight. The medium was then changed to new medium adjusted to pH 6.5 with or without 30 mM cis-UCA. The cells were incubated for 30 min to 18 h, released with trypsin-EDTA, and lysed for caspase-3 assay. After subtracting the blank values, the mean caspase-3 activity from the cis-UCA-treated cells was divided by the mean value from the corresponding control cells with the same incubation time. The data are the mean±SD from three parallel reactions in the caspase-3 assay.
Caspase-3 is a proteolytic enzyme that has a central role in the apoptotic cascade. The colorimetric assay is based on the hydrolysis of the peptide substrate acetyl-Asp-Glu-Val-Asp p-nitroanilide (Ac-DEVD-pNA) by caspase-3, resulting in the release of p-nitroaniline (pNA).
Cells grown in normal medium were counted and divided into separate cell culture flasks containing 1 μM CPT, 10 mM cis-UCA, or both, in pH 6.5 medium. […] Caspase-3 activity was measured in cell lysates. […] After washing with ice-cold PBS, the counted cells were resuspend in cell lysis buffer (50 mM Hepes, pH 7.4, 5 mM CHAPS, and 5 mM dithiotreitol) in a density of 10^8 cells/ml, incubated on ice for 15-20 min, and the cell lysates pelleted at 15,000×g for 20 min at 4° C. […] Absorbance of the formed end product p-nitroaniline (pNA) was recorded at 405 nm after 2 and 17 h.

In the case of `O=C(O)/C=C\c1c[nH]cn1` [cis-UCA, cis-urocanic acid], the “effect on the intracellular pH of neutrophils” value [1] is given as “affected the intracellular pH”, the “Inhibition of proliferation (mean percentage inhibition ± SD compared with untreated control)” value [2] is given as 26 ± 2.9% and the “Inhibition of proliferation (mean percentage inhibition ± SD compared with untreated control)” value (HSF (skin fibroblast)) is given as 41 ± 1.1%. The “second pKa (imidazolyl group)” value ([3]; Roberts et al. 1982, Krien & Kermici 2000) was 7.0, the “first pKa (carboxyl group)” value ([3]; Roberts et al. 1982) was 3.3 and the “Ki67+ (number of positive tumours/total analysed)” value [4] was “none of the analysed five tumours and 0/5”. The “Inhibition of proliferation (mean percentage inhibition ± SD compared with untreated control)” value [5] was 47 ± 0.5% and the “peak caspase-3 activity compared to cells treated with pH 6.5 medium only” value (caspase-3) was 380%.
